Experimental data from US5214156A, “Therapeutically useful tetralin derivatives” (The Upjohn Company, priority 1992, dated 1993).
Like-named read-outs stand apart in the source and are kept apart here.

Tests used:
5-HT receptor = test: In-vivo tryptophan hydroxylation (5-HTP formation) in limbic forebrain of reserpine-pretreated rats after NSD 1015; set-up: species or system rat; settings: limbic brain part
Description: In-vivo determination of rat brain tyrosine and tryptophan hydroxylation after reserpine pretreatment (biochemically monitored dopamine and 5-HT receptor activity)
The compounds under evaluation were tested biochemically for central dopamine and 5-HT receptor (pre- and/or postsynaptic) stimulating activity. The concept of this biochemical screening method is that a dopamine or 5-HT-receptor agonist will stimulate the receptor and through regulatory feedback systems effect a decline in tyrosine or tryptophan hydroxylating activity, respectively, and a subsequent reduction in the synthesis rate for dopamine and 5-HT in the presynaptic neuron. Dopamine and 5-HTP formation, as determined after in-vivo inhibition of the aromatic L-amino acid decarboxylase with NSD 1015 (3-hydroxybenzylhydrazine hydrochloride) are taken as indirect measures of dopamine and 5-HT-synthesis rates, respectively.
(§1) Rats (150-300 g) pretreated with reserpine (5 mg/kg, 18 hours before) were given the test compounds. Gross behavioral observations (changes in motility, hindleg abduction, etc.) were made. Subsequent administration of NSD 1015, decapitation, brain dissection (corpora striata, the limbic forebrain and the remaining hemispheral portions (mainly cortex) or rat brain), homogenization, centrifugation, ion-exchange chromatography and spectrofluorimetric measurements (all as described in detail by Wikstrom, et al., J. Med. Chem., 21, 864-867, 1978 and reference cited therein), or by HPLC/EC, gave the actual dopamine and 5-HTP levels. Several doses (n-4-6) were tested for each compound and brain area. The dose of a compound giving 50% of the maximal reduction of the %-HTP level in the rat brain part was then estimated.
^b Dose giving a half maximal decrease of 5HTP formation in the rat
limbic brain part. The values were estimated from doseresponse curves
comprising 4 to 6 levels (n = 4).
Control level was: 191 ng/g.

[1] = tested on: Reserpine Pretreated Rats; test: Gross behavior (antagonism of reserpine-induced neuroleptic syndrome); format: in vivo, rat
Source text: Antagonism of the reserpine-induced "neuroleptic syndrome" in the rat (gross behavior)
Depletion of the monoamine stores with reserpine brings about a "neuroleptic syndrome" characterized by hypomotility, catalepsy, muscle rigidity, hunch-backed posture as well as a number of other central and peripheral signs of monoamine depletion. The whole or parts of this syndrome can be reversed by the administration of drugs that stimulate dopamine or 5-HT receptors directly or indirectly.
Stimulation of the dopamine receptors, with apomorphine for example, gives rise to both locomotion and stereotyped behavior such as sniffing, gnawing and jumping. On the other hand, stimulation of the 5-HT receptors, with 5-hydroxytryptophane (5-HTP) combined with MAO-inhibitors for example, gives rise to a very different behavior.
as §1
^d The gross behavior of the animals was observed during the course o
the experiments. The 5HT behavioral syndrome consisted of flat body
psoture, abducted hind and forelegs, forepaw treading (pianoplaying) and […]

dopamine D2 receptor = dopamine D2 receptor (Homo sapiens, UniProt P14416); test: In vitro binding, dopamine D2
Chain of dopamine D2 receptor (P14416 whole entry, species assumed): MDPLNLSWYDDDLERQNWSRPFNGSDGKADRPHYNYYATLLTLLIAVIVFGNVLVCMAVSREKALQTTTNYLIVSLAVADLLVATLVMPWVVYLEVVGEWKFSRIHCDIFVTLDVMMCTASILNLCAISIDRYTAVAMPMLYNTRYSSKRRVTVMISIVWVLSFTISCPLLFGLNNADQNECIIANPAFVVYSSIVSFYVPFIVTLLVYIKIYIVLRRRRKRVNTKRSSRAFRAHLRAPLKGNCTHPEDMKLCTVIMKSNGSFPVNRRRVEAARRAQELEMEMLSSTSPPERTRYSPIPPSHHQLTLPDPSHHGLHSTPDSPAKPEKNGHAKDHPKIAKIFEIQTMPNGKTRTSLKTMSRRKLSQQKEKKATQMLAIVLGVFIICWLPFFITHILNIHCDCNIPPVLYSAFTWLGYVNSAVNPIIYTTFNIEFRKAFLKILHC
Description: ^e The affinity of the test compounds for dopamine D2 receptor sites
was determined by calculating the IC50 value (see text).

[2] = Bioavailability from decrease in rectal temperature after s.c. and p.o. administration; format: in vivo, rat; settings: rectal temperature decrease after s.c. (25.0 μmol/kg) and p.o. (100.0 μmol/kg); nonpretreated rats
Source text: "Temp" denotes the bioavailabilty as estimated by comparing the decrease
in rectal temperature after s.c. (25.0 μmol/kg) and p.o. (100.0
μmol/kg) administration of the test drugs in nonpretreated rats (c.f.,
FIGS. 1 and 2). "Plasma" denotes the availability as estimated by […]

[3] = Bioavailability from plasma drug levels (GC/MS) after s.c. and p.o. administration; format: in vivo, rat; settings: plasma drug levels by GC/MS after s.c. and p.o.; nonpretreated rats
Source text: FIGS. 1 and 2). "Plasma" denotes the availability as estimated by
comparing plasma drug levels (measured by means of GC/MS) after s.c. and
p.o. administration of test drugs in nonpretreated rats.

[4] = Bioavailability from ED50 values after s.c. and p.o. administration; format: in vivo, rat; settings: comparing ED50 values, reserpine-pretreated rats
Source text: ^f "Bioch" denotes the bioavailability as estimated by comparing the
ED50 values after s.c. and p.o. administration (reserpinepretreated rats)

5-HT1A receptor = molecular target: T1, 5-HT1A receptor (Homo sapiens, UniProt P08908); test: In vitro binding, 5-HT1A
T1 sequence (P08908 1-422): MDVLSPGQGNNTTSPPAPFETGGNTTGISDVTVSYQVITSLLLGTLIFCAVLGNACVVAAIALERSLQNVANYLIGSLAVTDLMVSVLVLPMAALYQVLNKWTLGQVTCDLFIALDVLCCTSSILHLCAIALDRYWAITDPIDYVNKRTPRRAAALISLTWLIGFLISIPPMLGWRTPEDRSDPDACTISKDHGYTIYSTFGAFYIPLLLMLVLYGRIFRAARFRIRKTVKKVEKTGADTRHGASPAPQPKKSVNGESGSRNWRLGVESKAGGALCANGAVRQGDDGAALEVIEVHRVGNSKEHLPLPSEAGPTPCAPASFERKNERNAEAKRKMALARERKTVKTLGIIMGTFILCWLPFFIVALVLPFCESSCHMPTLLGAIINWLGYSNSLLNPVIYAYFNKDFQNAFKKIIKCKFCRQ
Source text: The compounds of this invention where --OR1 is in the 8 position in the aromatic ring are very selective 5-HT1A receptor agonists having little or no dopaminergic activity. […] These compounds are particularly effective anxiolytic and antidepressant agents. Other uses for these compounds include panic attacks, obsessive-compulsive disturbances, and senile dementia particularly the emotional disturbances seen in dementia disorders. In addition, central 5-HT receptor activation are believed to be involved in mediating sexual behavior. These compounds would be useful to stimulate sexual activity and to alleviate impotence.

[5] = tested on: spontaneously hypertensive rats; test: Blood pressure lowering in spontaneously hypertensive rats; format: in vivo, rat
Source text: Pharmacol. 37, 263-265 (1984). Without further elaboration,it is believed that one skilled in the art can, using the preceding description, practice the present invention to its fullest extent.

dopamine receptors = settings: background; cited from earlier work

For `COc1cccc2c1CC(N(CC1CC1)CC1CC1)CC2` (stereo not shown) [Example 8-OMe-DCPMAT, 8Methoxy-2-(N,N-dicyclopropylmethylamino)tetralin], the “ED50 5-HTP limb” value (5-HT receptor; po) was 2.0 µmol/kg, the “ED50 5-HTP limb” value (5-HT receptor; sc) was 1.2 µmol/kg and the Behavior ([1]; po) was 5-HT syndr. The Behavior ([1]; sc) was 5-HT syndr, the IC50 (dopamine D2 receptor) was 40000 nM and the Bioavailability temp po/sc [2] was 36%. For the same compound, the Bioavailability plasma po/sc [3] was 6-16%, the Bioavailability bioch po/sc [4] was 60% and the IC50 (5-HT1A receptor) was 21 nM. The “IC50 ratio of dopamine D2 to 5HT1A in vitro binding (selectivity)” value (5-HT1A receptor; in vitro binding, Table 1 data) was “demonstrates the selectivity for the 5-HT1A receptor”.
With “(-)-R-8-Methoxy-2-(di-cyclopropylmethylamino)tetralin [Example 13]” the “blood pressure lowering effects” value [5] was “demonstrate blood pressure lowering effects”.
In the case of `CCCN(CC1CC1)C1CCc2cccc(OC)c2C1` (stereo not shown) [Example 8-OMe-CPMAT, 8Methoxy-2-(N-cyclopropylmethyl-N-n-propylamino)tetralin], the “ED50 5-HTP limb” value (5-HT receptor; po) is reported as 3.3 µmol/kg, the “ED50 5-HTP limb” value (5-HT receptor; sc) is reported as 0.40 µmol/kg and the Behavior ([1]; po) is reported as 5-HT syndr. The Behavior ([1]; sc) was 5-HT syndr, the Bioavailability bioch po/sc [4] was 12% and the IC50 (5-HT1A receptor; in vitro binding, read-out: In vitro binding 5-HT1A IC50) was 6 nM.
For `O=C1CC2(CCCC2)CC(=O)N1CCCCN1CCN(c2ncccn2)CC1` [Buspirone], the “dopamine receptor antagonism / agonism” value (dopamine receptors) is listed as “antagonizes dopamine receptors at the same dose it stimulates 5-HT1A receptors”.
With `COc1cccc2c1CC(N(CCc1cccs1)CC1CC1)CC2` (stereo not shown) [Example 17, 8-Methoxy-2-(N-cyclopropylmethyl-N-(2-thiophenethyl)-amino)tetralin] the “blood pressure lowering effects” value [5] was “demonstrate blood pressure lowering effects”.
For `CN1CCc2cccc3c2[C@H]1Cc1ccc(O)c(O)c1-3` [apomorphine], the “dopamine receptor antagonism / agonism” value (dopamine receptors) is listed as “able to activate the dopamine autoreceptors as well as the post synaptic dopamine receptors”.
In the case of `COc1cccc2c1C[C@H](N(CC1CC1)CC1CC1)CC2` [Example 12, (+)-R-8-Methoxy-2-(di-cyclopropyl-methylamino)tetralin], the “blood pressure lowering effects” value [5] is reported as “demonstrate blood pressure lowering effects”.
In the case of `CC1(C)CC(=O)N(CCCCN2CCN(c3ncccn3)CC2)C(=O)C1` [Gepirone], the “dopamine receptor antagonism / agonism” value (dopamine receptors) is listed as “has dopamine antagonist properties”.
